Laboratory results taken from patent US10426815B2, “Prevention and treatment of itch with an MRGPR antagonist” (THE GENERAL HOSPITAL CORPORATION, priority 2015, dated 2019).
Entries after “also recorded” stand apart in the source; their conditions may differ.

What was measured:
Assay type in all cases: cell-based
[1] = target: T1, NK1R (NK1) (Homo sapiens, UniProt P25103); experiment: Calcium imaging of cells transfected with the GPCR (Table 1); details: FIG. 6a: SP 5 nM, inhibitors 1 μM
T1 construct: host or cells: HeLa cells, pcDNA3.1(-)
Experimental: (§1) Human NK1 cDNA was obtained from LIFE Technologies, PCR cloned with Xho I-Hind III ends and cloned into pcDNA3.1(−). Mouse NK2 and NK3 expression-ready vectors were obtained from […] (Piscataway, N.J.). All other Mrgprs (human MRGPRX1, human MRGPRX2, human MRGPRX3, human MRGPRX4, mouse MrgprA2a, mouse MrgprA2b, mouse MrgprA3, mouse MrgprA4, mouse MrgprA9, mouse MrgprA10, mouse MrgprB4 and mouse MrgprB5) were cloned by PCR from genomic DNAs and inserted into pcDNA3.1 (−).
10 μg of expression vector (human MRGPRX2, mouse MrgprA1 or NK1) and 10 μl of LIPOFECTAMINE 2000 transfection reagent were diluted into 0.5 ml of DMEM and separately left at room temperature (RT) for 5 min. They were then mixed and incubated at RT for 20 minutes prior to being added to HeLa cells. HeLa cells were grown to confluence, trypsinized and 1×10^6 cells were pelleted in a 15 ml tube by centrifugation at 1000 rpm for 5 minutes. […]
Calcium imaging was performed immediately after loading cells with Fura-2, using a ZEISS Axiovert 200M microscope platform equipped with a flipping filter wheel for ratiometric imaging. […] The software later analyzed all images taken during each excitation period. Ratiometric changes were measured in 10-20 cells in each individual experiment. An average of the fluorescence of the cells in each image was calculated and plotted against time in seconds.

[2] = target: T2, MrgA3 (mouse MrgprA3) (Mus musculus, UniProt Q91WW3); experiment: as above; details: FIG. 7c: CQ 100 μM, QWF 100 μM
T2 construct: expressed in transfected cells; host or cells: HeLa cells, pcDNA3.1(-)
T2 sequence (Q91WW3 1-302): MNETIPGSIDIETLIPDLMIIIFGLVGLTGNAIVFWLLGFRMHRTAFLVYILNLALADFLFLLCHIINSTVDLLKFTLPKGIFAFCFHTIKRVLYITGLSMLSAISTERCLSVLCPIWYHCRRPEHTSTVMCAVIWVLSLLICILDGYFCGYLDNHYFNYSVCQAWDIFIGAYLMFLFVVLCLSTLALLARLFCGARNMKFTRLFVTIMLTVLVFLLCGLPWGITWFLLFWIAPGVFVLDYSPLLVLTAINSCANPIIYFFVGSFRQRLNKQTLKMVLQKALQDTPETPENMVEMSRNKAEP
Experimental: as §1
10 μg of expression vector (human MRGPRX2, mouse MrgprA1 or NK1) and 10 μl of LIPOFECTAMINE 2000 transfection reagent were diluted into 0.5 ml of DMEM and separately left at room temperature (RT) for 5 min. They were then mixed and incubated at RT for 20 minutes prior to being added to HeLa cells. HeLa cells were grown to confluence, trypsinized and 1×10^6 cells were pelleted in a 15 ml tube by centrifugation at 1000 rpm for 5 minutes. The DMEM-LIPOFECTAMINE 2000-DNA mixture (1 ml) was then added to the cell pellet, suspended and incubated at RT for 5 minutes. 2 ml of complete DMEM with 10% FBS without antibiotics were added to the tube, mixed by inverting the tube, plated into a 96-well glass bottom plate at 50,000 cells/well, and placed in a 37° C. CO2 incubator for 3 hours. HeLa cells transfected with salmon sperm DNA were plated as a control. The medium was changed after 3 hours and left in the incubator. 24 hours after transfection, the medium in the wells was removed and 100 μl of complete DMEM containing 2 μM of FURA-2 were added to each well and left at room temperature in the dark for 1 hr.
Calcium imaging was performed immediately after loading cells with Fura-2, using a ZEISS Axiovert 200M microscope platform equipped with a flipping filter wheel for ratiometric imaging. Axiovision software, version 4.6 was used for calcium image analysis of the cells excited at 340 nm and 380 nm. Agonists were added at 15 seconds after the start of the excitation procedure. Antagonists were added five minutes before imaging with the agonists. Images were taken every 5 seconds, including at zero time, during a 90 second period or longer if required. The software later analyzed all images taken during each excitation period. Ratiometric changes were measured in 10-20 cells in each individual experiment. An average of the fluorescence of the cells in each image was calculated and plotted against time in seconds.

[3] = test system: human LAD2 mast cells; experiment: Human LAD2 mast cell degranulation assay (β-hexosaminidase release); details: LAD2 cells preincubated with 100 μM QWF for 10 min
Experimental: The human LAD2 mast cell line (from D. Metcalfe, National Institute of Allergy and Infectious Diseases, NIH, Bethesda, Md.) was cultured in StemPro-34 SFM medium (LIFE TECHNOLOGIES) supplemented with 2 mM L-glutamine, 100 U/ml penicillin, 100 μg/ml streptomycin, and 100 ng/ml recombinant human stem cell factor (PEPROTECH). The cells were maintained at 0.25-5×10^5 cells/ml at 37° C. and 5% CO2 and hemi-depleted each week.
Degranulation was measured as described previously (36). In brief, LAD2 cells were preincubated with 100 μM QWF for 10 min before activation by agonists at indicated concentrations for 30 min. The level of mast cell degranulation was assessed by the release of β-hexosaminidase in mast cell granules, quantified by the level of its substrate p-nitrophenyl N-acetyl-β-D-glucosamide (PNAG) digested in a colorimetric assay.

[4] = target: T3, MrgC11 (mouse MrgprC11) (Mus musculus, UniProt Q8CIP3); experiment: Calcium imaging of cells transfected with the GPCR (Table 1); details: capsaicin 3 μM
T3 construct: expressed in transfected cells; host or cells: HeLa cells
T3 sequence (Q8CIP3 1-322): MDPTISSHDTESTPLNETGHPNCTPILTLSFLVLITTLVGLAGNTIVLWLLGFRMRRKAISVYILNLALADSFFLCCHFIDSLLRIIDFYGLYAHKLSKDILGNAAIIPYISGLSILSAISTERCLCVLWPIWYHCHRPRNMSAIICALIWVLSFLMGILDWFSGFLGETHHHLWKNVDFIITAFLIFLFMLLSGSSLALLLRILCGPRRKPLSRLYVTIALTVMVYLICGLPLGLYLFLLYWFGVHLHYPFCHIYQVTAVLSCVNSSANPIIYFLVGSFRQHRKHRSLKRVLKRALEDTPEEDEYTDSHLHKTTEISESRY

T1 sequence (P25103 whole entry): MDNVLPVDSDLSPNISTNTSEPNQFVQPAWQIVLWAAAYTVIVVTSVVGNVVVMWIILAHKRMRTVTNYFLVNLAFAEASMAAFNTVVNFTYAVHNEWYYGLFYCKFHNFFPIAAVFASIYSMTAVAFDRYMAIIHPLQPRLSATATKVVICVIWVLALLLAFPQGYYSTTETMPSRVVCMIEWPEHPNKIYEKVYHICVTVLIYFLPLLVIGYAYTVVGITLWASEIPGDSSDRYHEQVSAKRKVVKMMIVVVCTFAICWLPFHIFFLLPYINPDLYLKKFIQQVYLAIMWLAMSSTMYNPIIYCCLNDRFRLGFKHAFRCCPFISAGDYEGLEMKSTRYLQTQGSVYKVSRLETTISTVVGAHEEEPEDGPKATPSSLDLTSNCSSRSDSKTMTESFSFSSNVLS

Substance	inhibition of NK1 (activation by SP) [1]	inhibition of MrgprA3 activation by chloroquine (CQ) [2]	inhibition of degranulation induced by SP [3]	inhibition of degranulation induced by atracurium [3]	inhibition of degranulation induced by ciprofloxacin [3]	inhibition of degranulation induced by compound 48/80 [3]	activation of mouse MrgprC11 by the substance (in words) [4]
Boc-Gln-D-Trp(Formyl)-Phe benzyl ester trifluoroacetate [QWF]	inhibit; also recorded: blocks	does not affect; also recorded: does not inhibit	significantly inhibits	significantly inhibits	significantly inhibits	significantly inhibits	–
SLIGRL: tethered hexapeptide ligand of mouse PAR2 (SEQ ID NO: 7)	–	–	–	–	–	–	activates
